Consider one compound from US6727232B2, “Nucleoside peptide antibiotics of AA-896” (Wyeth Holdings Corporation, priority 2001, dated 2004).

Holding throughout (experiment): Broth dilution MIC
Type in all cases: cell-based
(In general: Broth dilution looks for growth in wells or tubes with falling amounts of substance.)

In one experiment the test system is S. aureus GC 4536. Conditions: Staphylococcus aureus, GC4536; S. aureus GC 4536; Mueller-Hinton broth, 18 hours at 35° C.; read-out: Antimicrobial Activity (MIC). A digest of the protocol: (§1)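 Standard broth dilution: make serial dilutions of compound in Mueller-Hinton broth, add bacterial suspension, incubate 18 hours at 35° C., then record the lowest concentration inhibiting growth.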

Another experiment relates to CNS GC 4538. Particulars: CNS GC 4538; Mueller-Hinton broth, 18 hours at 35° C.; read-out: Antimicrobial Activity (MIC). The procedure, abridged: as §1
The test system of another experiment is E. cloacae GC 3783. Particulars: Enterobacter cloacae, GC3783; E. cloacae GC 3783; Mueller-Hinton broth, 18 hours at 35° C.; read-out: Antimicrobial Activity (MIC). A digest of the protocol:
as §1

For a further experiment, the system named is E. coli GC 4560. Particulars: Escherichia coli, GC4560, 18 h, read-out: Antimicrobial Activity (MIC). A digest of the protocol: as §1
In another experiment the test system is S. aureus GC 2216. Particulars: Staphylococcus aureus, GC2216; S. aureus GC 2216; Mueller-Hinton broth, 18 hours at 35° C.; read-out: Antimicrobial Activity (MIC). The procedure, abridged:
as §1

A further experiment deals with E. coli GC 2203. Particulars: Escherichia coli, GC2203; E. coli GC 2203; Mueller-Hinton broth, 18 hours at 35° C.; read-out: Antimicrobial Activity (MIC). The procedure, abridged:
as §1

Another experiment relates to M. morganii GC 4531. Conditions: Morganella morganii, GC4531; M. morganii GC 4531; Mueller-Hinton broth, 18 hours at 35° C.; read-out: Antimicrobial Activity (MIC). A digest of the protocol: as §1
For a further experiment, the system named is E. coli GC 3226. Particulars: Escherichia coli, GC3226; E. coli GC 3226; Mueller-Hinton broth, 18 hours at 35° C.; read-out: Antimicrobial Activity (MIC). A digest of the protocol: as §1
The test system of the next experiment is E. faecalis GC 2242. Particulars: Enterococcus faecalis, GC2242; E. faecalis GC 2242; Mueller-Hinton broth, 18 hours at 35° C.; read-out: Antimicrobial Activity (MIC). A digest of the protocol: as §1
For a further experiment, the system named is E. faecalis GC 842. Particulars: Enterococcus faecalis, GC842; E. faecalis GC 842; Mueller-Hinton broth, 18 hours at 35° C.; read-out: Antimicrobial Activity (MIC). The procedure, abridged:
as §1

The subject of another experiment is S. aureus GC 1131. Conditions: Staphylococcus aureus, GC1131; S. aureus GC 1131; Mueller-Hinton broth, 18 hours at 35° C.; read-out: Antimicrobial Activity (MIC). The procedure, abridged:
as §1

The next experiment deals with E. faecalis GC 4555. Particulars: Enterococcus faecalis, GC4555; E. faecalis GC 4555; Mueller-Hinton broth, 18 hours at 35° C.; read-out: Antimicrobial Activity (MIC). The procedure, abridged: as §1
The test system of the next experiment is S. marcescens GC 4077. Particulars: Serratia marcescens, GC4077; S. marcescens GC 4077; Mueller-Hinton broth, 18 hours at 35° C.; read-out: Antimicrobial Activity (MIC). A digest of the protocol:
as §1

In the next experiment the test system is P. aeruginosa GC 2214. Conditions: Pseudomonas aeruginosa, GC2214; P. aeruginosa GC 2214; Mueller-Hinton broth, 18 hours at 35° C.; read-out: Antimicrobial Activity (MIC). The procedure, abridged: as §1
The next experiment deals with CNS GC 4547. Conditions: CNS GC 4547; Mueller-Hinton broth, 18 hours at 35° C.; read-out: Antimicrobial Activity (MIC). A digest of the protocol:
as §1

Another experiment relates to E. coli GC 4559. Particulars: Escherichia coli, GC4559; E. coli GC 4559; Mueller-Hinton broth, 18 hours at 35° C.; read-out: Antimicrobial Activity (MIC). A digest of the protocol:
as §1

The subject of the next experiment is P. rettgeri GC 4530. Particulars: Providencia rettgeri, GC4530; P. rettgeri GC 4530; Mueller-Hinton broth, 18 hours at 35° C.; read-out: Antimicrobial Activity (MIC). A digest of the protocol:
as §1

Another experiment concerns K. pneumoniae GC 4534. Particulars: Klebsiella pneumoniae, GC4534; K. pneumoniae GC 4534; Mueller-Hinton broth, 18 hours at 35° C.; read-out: Antimicrobial Activity (MIC). The procedure, abridged: as §1
The next experiment relates to CNS GC 4537. Conditions: CNS GC 4537; Mueller-Hinton broth, 18 hours at 35° C.; read-out: Antimicrobial Activity (MIC). The procedure, abridged: as §1
The subject of a further experiment is P. aeruginosa GC 4532. Particulars: Pseudomonas aeruginosa, GC4532; P. aeruginosa GC 4532; Mueller-Hinton broth, 18 hours at 35° C.; read-out: Antimicrobial Activity (MIC). The procedure, abridged:
as §1

Values after ≈ are worked out from the molar mass of the structure shown.

One may read the MIC as the lowest concentration found to suppress growth. For `CO[C@H]1C(O[C@H](C(C(=O)O)N(CCCNC(=O)C(NC(=O)C(NC(=O)NC(C(=O)O)C(C)C)C2CCNC(=N)N2)C(O)C(C)C)Cc2ccccc2)[C@H]2O[C@@H](n3ccc(=O)[nH]c3=O)[C@H](O)[C@@H]2O)O[C@H](CNCc2ccccc2)[C@@H]1O` (stereo partly drawn) [Example 20B, 15-Benzyl-16-((R)-({(3R,4S,5R)-5-[(benzylamino)methyl]-4-hydroxy-3-methoxytetrahydro-2-furanyl}oxy){(2S,3S,4R,5R)-5-[2,4-dioxo-3,4-dihydro-1 (2H)-pyrimidinyl]-3,4-dihydroxytetrahydro-2-furanyl}methyl)-9-(1-hydroxy-2-methylpropyl)-6-(2-iminohexahydro-4-pyrimidinyl)-2-isopropyl-4,7,10-trioxo-3,5,8,11,15-pentaazaheptadecane-1,17-dioic Acid], the MIC was > 32 µg/mL in the experiment with S. aureus GC 4536; > 32 µg/mL in the experiment with CNS GC 4538; > 32 µg/mL in the experiment on E. cloacae GC 3783; 32 µg/mL (≈ 28.4 µM) in the experiment with E. coli GC 4560; > 32 µg/mL in the experiment on S. aureus GC 2216; > 32 µg/mL in the experiment with E. coli GC 2203. Besides, the MIC with M. morganii GC 4531, in the experiment with E. coli GC 3226, in the experiment with E. faecalis GC 2242, in the experiment with E. faecalis GC 842, with S. aureus GC 1131 and in the experiment with E. faecalis GC 4555 was > 32 µg/mL each time. For the same compound, the minimal inhibitory concentration (MIC) with S. marcescens GC 4077, with P. aeruginosa GC 2214, with CNS GC 4547, with E. coli GC 4559, with P. rettgeri GC 4530 and in the experiment with K. pneumoniae GC 4534 was > 32 µg/mL in each case. The minimum inhibitory concentration (MIC) in the experiment on CNS GC 4537 and in the experiment on P. aeruginosa GC 4532 was > 32 µg/mL throughout.
